Measurements from US20240390434A1, “PROBIOTIC ENHANCERS AND USES THEREOF” (Blis Technologies Limited, priority 2021, published 2024).

Legend:
ENTR indicator strains = assay: Dose response deferred antagonism assay, producer K12: average over indicators; type: cell-based
Procedure: 1-2 producer strain colonies were transferred from a stock plate into 900 μL of suspension solution using a fresh cotton swab. Following this, suspensions were vortexed, and a sample was inoculated onto solid culture media using a fresh cotton swab. The inoculation was a streak that runs diametrically across the agar plate in a 1.5 cm wide strip. The plate was then incubated. Following incubation all visible colonies were removed by swabbing them from the agar surface. The plates were then treated with chloroform by dispensing 2 ml of chloroform onto 4 cm×4 cm piece of cloth and sealing the inverted agar plate on top for 30 minutes. The plates were then air dried for 30 minutes following chloroforming. 1-2 indicator strain colonies were then transferred from a stock plate into complementary suspension solution. […]
Each indicator streak was prepared with fresh a suspension containing cells from a corresponding stock plate containing the indicator strain of interest. […] Results were measured by qualitatively reviewing the subsequent (if any) sizes of the zones of inhibition (ZOI) of indicator strain colony growth. […]
CABCa agar plates containing various concentrations of saccharide were prepared according to the methods described in Method 1. […] Results were recorded by measuring the size of the zone of inhibition (ZOI) in mm. […]

[1] = test system: bacterial indicator strains; assay: Split plate inhibitory activity of K12 in commercial powder Daily Defence Junior; type: cell-based; settings: raffinose 2.5% w/w, galactose 0.5% w/w, or combination
Procedure: Method: Formulations for testing were prepared as follows: • 1. Control: Commercial powder formulation (Daily Defence Junior) containing S. salivarius K12 • 2. Galactose 0.5% w/w was added to the commercial powder and mixed thoroughly to achieve a uniform mixture. • 3. Raffinose 2.5% w/w was added to the commercial powder and mixed thoroughly to achieve a uniform mixture.
The following method was used to measure the inhibitory effect of S. salivarius K12 in the context of the powder formulations. Exactly 40 mL of 50° C. molten CAB agar containing 0.5% calcium carbonate (CABCa) was poured in agar plates (120×120 mm). Once the agar was set upon cooling, it was split in the middle and half of the agar gel was removed. The other half was left on the plate as Blank agar marked as side “A”. Approximately, 0.8 g of each combination (DDJ powder with (1) galactose, (2) raffinose or (3) combination of raffinose and galactose) was mixed with 1 mL of sterile distilled water and vortexed to produce a homogeneous suspension. […] The pH of the producer side was measured and adjusted to 6.5-7.5 by soaking into the agar a solution of 0.5 M sodium carbonate pH 11. […] The zone of inhibition of each indicator strain was measured (in mm) using a ruler. Results were also read using a macroscope to establish presence of small colonies or complete inhibition zones.

| SMILES | Average ZOI change (ENTR indicator strains; 1.5% raffinose) [mm] | inhibitory activity of S. salivarius K12 in commercial powder vs control [1] | Average ZOI change (ENTR indicator strains; 2% galactose) [mm] |
| --- | --- | --- | --- |
| OC[C@H]1O[C@H](OC[C@H]2O[C@H](O[C@]3(CO)O[C@H](CO)[C@@H](O)[C@@H]3O)[C@H](O)[C@@H](O)[C@@H]2O)[C@H](O)[C@@H](O)[C@H]1O [Raffinose, D-(+) Raffinose pentahydrate] | 10.33 | increased | – |
| O=C[C@H](O)[C@@H](O)[C@@H](O)[C@H](O)CO [Galactose, D-galactose] | – | increased | 9.5 |
